# Entries after “also recorded” stand apart in the source; their conditions may differ. Where two headings read alike, the source gives them in different places.
# Assays:
# SYK = target: T1, SYK (Homo sapiens, UniProt P43405); assay: SYK activity in platelets; format: cell-based; details: data not shown
# T1 construct: endogenous in cells; host or cells: platelets
# SRC = target: T2, SRC (Homo sapiens, UniProt P12931); assay: SRC activity in platelets; format: cell-based; details: data not shown
# T2 construct: endogenous in cells; host or cells: platelets
# T2 sequence (P12931 whole entry): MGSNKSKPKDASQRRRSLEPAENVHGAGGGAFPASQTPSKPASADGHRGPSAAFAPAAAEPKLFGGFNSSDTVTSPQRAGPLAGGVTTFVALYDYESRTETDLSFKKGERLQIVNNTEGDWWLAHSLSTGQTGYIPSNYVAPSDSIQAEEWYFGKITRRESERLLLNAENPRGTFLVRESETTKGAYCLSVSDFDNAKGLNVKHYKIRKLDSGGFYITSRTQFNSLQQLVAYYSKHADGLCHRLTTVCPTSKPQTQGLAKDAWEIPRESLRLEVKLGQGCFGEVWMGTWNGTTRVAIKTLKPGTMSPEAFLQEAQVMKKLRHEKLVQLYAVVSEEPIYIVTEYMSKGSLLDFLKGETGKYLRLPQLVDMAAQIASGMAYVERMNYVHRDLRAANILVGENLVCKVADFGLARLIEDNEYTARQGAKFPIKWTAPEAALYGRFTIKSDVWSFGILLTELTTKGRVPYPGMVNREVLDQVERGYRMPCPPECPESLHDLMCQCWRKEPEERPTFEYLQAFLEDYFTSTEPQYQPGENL
# PLCγ2 = assay: Collagen-induced PLCγ2 tyrosine phosphorylation in platelets (immunoprecipitation/Western blot); format: cell-based, human; details: 100 μM, 30 min pretreatment; 2 μg/mL collagen
# Description: The membrane was stripped and re-probed with antibodies raised against PLCγ2. An increase in the level of phosphorylated PLCγ2 was seen between 30 and 45 seconds following collagen stimulation.
# platelets [1] = assay: Inositol-1,4,5-trisphosphate production in collagen-stimulated platelets; format: cell-based, human
# Method: Collagen stimulation was terminated by the addition of ice-cold 20% perchloric acid. Inositol-1,4,5,-trisphosphate (Ins-1,4,5-P3) levels were measured by using a D-myo-[^3H]inositol-1,4,5-trisphosphate assay system purchased from Amersham (Arlington Heights, Ill.), as reported (Uckun et al., 1991) (FIG. 2B). This highly sensitive assay is based on the competition between nonradiolabeled Ins-1,4,5-P3 in the cellular extracts and a fixed quantity of a high specific activity [^3H] Ins-1,4,5-P3 tracer for a limited number of binding sites on a Ins-1,4,5-P3-specific and sensitive bovine adrenal binding protein (Uckun et al., 1991).
# Platelets were stimulated at 37 degrees C. with 2 μg/ml collagen for various times. Activation was stopped by the addition of ice cold 20% perchloric acid. The amount of inositol 1,4,5-triphosphate production was measured using a detection kit from Amersham.
# platelets [2] = assay: Collagen-induced platelet aggregation (aggregometer); format: cell-based, human; details: for IC50: 30 min pretreatment
# Method: (§1) Platelet aggregation with respect to control was monitored in a Chronolog Model 560 Dual Chamber Platelet Aggregometer.
# (§2) Controls were treated with vehicle (PBS supplemented with 1% DMSO) alone. The treated PRP samples were diluted 1:4 with sterile normal saline and platelets were stimulated with collagen (2 μg/mL or 5 μg/mL, Chronolog Inc., Philadelphia, Pa.) or thrombin (0.1 U/mL, Chronolog Inc., Philadelphia, Pa.) as agonists under stirred conditions. Platelet aggregation was monitored in a platelet aggregometer (Model 560 Dual Chamber-Instrument, Chronolog Ind., Philadelphia, Pa.) for 5 minutes.
# platelets [3] = assay: Thrombin-induced platelet aggregation (aggregometer); format: cell-based, human; details: thrombin 0.1 U/mL
# Method: as §1, §2
# mice [4] = assay: Toxicity of LFM-A13 in mice; details: mice N=160, 12.5 mg/kg to 100 mg/kg i.p.
# Description: For histopathologic studies, tissues were fixed in 10% neutral buffered formalin, dehydrated, and embedded in paraffin by routine methods.
# mice [5] = assay: Tail bleeding time in mice; format: in vivo
# Method: Mice were placed in a tube holder and tail bleeding was performed with a 2 mm cut from the protruding tail tip, the tail was placed vertically into 10 mL normal saline in a 37° C. water bath and bleeding times determined as previously described (Teng et al., 1997). Platelet plug formation and clotting times on the eye after retro-orbital venupuncture were evaluated using published methods (Sheu et al., 1995).
# ICR mice = assay: Thromboplastin-induced fatal thromboembolism in mice; format: in vivo; details: for median survival time / probability of event-free survival after thromboplastin challenge: N=10
# Method: The mice were challenged with 25 mg/kg thromboplastin (Sigma, St. Louis, Mo.) via a bolus i.v. injection in to the tail vein as previously described (Sato et al., 1998). At the time of thromboembolism-related death, after the thromboplastin injection or elective sacrifice at 48 hours using ketamine/xylazine, all mice were perfused with PBS followed by 4% phosphate buffered formalin. PBS and formalin were pumped through the left ventricle of the heart and allowed to exit through a 3 mm incision through the anterior wall of the right ventricle.
# platelets [6] = assay: Collagen-induced calcium mobilization in platelets (fluorescence); format: cell-based, human; details: 100 μM; collagen 20 μg/ml
# Method: Platelets were loaded with […] (Molecular Probes, Eugene Oreg.) for 15 minutes at 37 degrees C. […] The changes in fluorescence were monitored on a spectrofluorimeter.
# BTK = BTK (Homo sapiens, UniProt Q06187); assay: BTK immune complex kinase assay from collagen-stimulated platelets; details: 100 μM
# Sequence of BTK (Q06187 whole entry): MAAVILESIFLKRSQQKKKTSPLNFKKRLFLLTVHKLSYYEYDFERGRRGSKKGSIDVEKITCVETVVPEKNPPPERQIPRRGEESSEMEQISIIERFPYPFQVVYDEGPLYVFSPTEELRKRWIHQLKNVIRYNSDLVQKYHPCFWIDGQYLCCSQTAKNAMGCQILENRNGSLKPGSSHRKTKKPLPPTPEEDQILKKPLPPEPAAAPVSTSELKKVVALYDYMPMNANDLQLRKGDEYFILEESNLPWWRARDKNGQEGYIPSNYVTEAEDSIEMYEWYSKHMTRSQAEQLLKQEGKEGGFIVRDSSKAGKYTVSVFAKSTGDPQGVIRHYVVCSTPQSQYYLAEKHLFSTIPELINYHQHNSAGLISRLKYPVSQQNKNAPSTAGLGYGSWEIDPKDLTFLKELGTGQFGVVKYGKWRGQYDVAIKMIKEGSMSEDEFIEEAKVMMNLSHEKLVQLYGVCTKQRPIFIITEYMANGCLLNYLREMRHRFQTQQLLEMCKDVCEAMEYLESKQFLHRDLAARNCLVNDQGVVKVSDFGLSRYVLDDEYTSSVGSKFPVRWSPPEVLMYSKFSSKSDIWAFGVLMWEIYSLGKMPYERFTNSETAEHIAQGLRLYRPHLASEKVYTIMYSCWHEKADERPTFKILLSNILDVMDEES
# Method: Platelets were isolated from platelet rich plasma (PRP) purchased from the Memorial Blood Bank (Minneapolis, Minn.) as previously described (Asselin et al. 1997) and used at a concentration of 3×10^9 cells/mL in a modified Tyrode's buffer (137 mM NaCl, 2.7 mM KCl, 0.9 mM MgCl2, 5.5 mM glucose, 3.3 mM NaH2PO4, 3.8 mM Hepes, pH 7.4). […] Platelets were then stimulated at 37° C. with 2 μg/mL (or 10 μg/mL) collagen or 0.1 U/mL thrombin (Chronolog Inc., Philadelphia, Pa.). Stimulation was stopped and platelets were lysed at the indicated time points by adding ice cold 3x Triton X-100 lysis buffer (150 mM NaCl, 15 mM EGTA, 3% Triton X-100, 3% Sodium deoxycholate, 0.3% SDS, 3 mM PMSF, 3 mM Na3 VO4, 60 μg/mL leupeptin, 60 μg/mL aprotinin, 50 mM Tris-HCl pH 7.4) and incubating for 1 hour on ice. Following removal of the membranous fraction by centrifugation (12,000xg, 30 min) the samples were subjected to immunoprecipitation utilizing antibodies raised against BTK (Santa Cruz Biotechnologies, Santa Cruz, Calif.), TEC (Upstate Biotechnology, Lake Placid, N.Y.) and PLCγ2 (Santa Cruz Biotechnologies, Santa Cruz, Calif.) (Vassilev et al., 1999). Immunoprecipitations, immune-complex protein kinase assays, and immunoblotting on PVDF membranes (Milipore, Bedford, Mass.) using the ECL chemiluminescence detection system (Amersham Life Sciences, Arlington Heights, Ill.) were conducted as described previously (Mahajan et al., 1999; Sudbeck et al., 1999; Uckun et al., 1996a; Uckun et al., 1996b).
# For immunoblotting, antibodies against phosphotyrosine (Transduction Labs, Lexington, Ky.), BTK (Santa Cruz Biotechnologies, Santa Cruz, Calif.), TEC (Upstate Biotechnology, Lake Placid, N.Y.) and PLCγ2 (Santa Cruz Biotechnologies, Santa Cruz, Calif.) were used. Horse radish peroxidase-conjugated sheep anti-mouse, donkey anti-rabbit secondary antibodies were purchased from Transduction Laboratories (Lexington, Ky.). Horse radish peroxidase-conjugated sheep anti-goat antibodies were purchased from Santa Cruz (Santa Cruz, Calif.). Following electrophoresis, kinase gels were dried onto Whatman 3M filter paper and subjected to phosphoimaging on a Molecular Imager (Bio-Rad, Hercules, Calif.) as well as autoradiography on film. Similarly, all chemiluminescent BTK/TEC Western blots were subjected to three dimensional densitometric scanning using the Molecular Imager and Imaging Densitometer using the Molecular Analyst/Macintosh version 2.1 software following the specifications of the manufacturer (Bio-Rad).
# Antibodies raised against BTK and TEC utilized for immunoprecipitations and Western blot analysis were purchased from Santa Cruz (Santa Cruz, Calif.).
# For each drug concentration, a BTK/TEC kinase activity index as determined by comparing the ratios of the kinase activity in phosphorimager units (PIU) and density of the protein bands in densitometric scanning units (DSU) to those of the baseline sample and using the formula: Activity Index=[PIU of kinase band/DSU of BTK/TEC protein band]test sample: [PIU of kinase band/DSU of BTK/TEC protein band]baseline control sample (FIGS. 1A-1D).
# The samples were subjected to immunoprecipitation utilizing antibodies raised against BTK. The BTK immune complexes were subjected to immune kinase assays.
# [7] = 30 min, 0 seconds after 2 μg/ml collagen
# [8] = 30 min, 90 seconds after 2 μg/ml collagen
smiles,measurement,setting,value
"C/C(O)=C(\C#N)C(=O)Nc1cc(Br)ccc1Br [LFM-A13, α-cyano-β-hydroxy-β-methyl-N-(2,5-dibromophenyl)-propenamide]",baseline and collagen-induced SYK activity in platelets,SYK,did not inhibit the baseline activity of SYK or SRC or prevent collagen-induced SYK and SRC activation
same,baseline and collagen-induced SRC activity in platelets,SRC,did not inhibit the baseline activity of SYK or SRC or prevent collagen-induced SYK and SRC activation
same,collagen-induced tyrosine phosphorylation of PLCγ2,PLCγ2,no enhanced tyrosine phosphorylation of PLCγ2 was detected; also recorded: No phosphorylation of PLCγ2 was noted
same,"% control inositol 1,4,5-triphosphate production (peak response)","platelets [1]; 100 μM LFM-A13 alone, no collagen",75 % control
same,"% control inositol 1,4,5-triphosphate production (peak response)",platelets [1]; 100 μM LFM-A13 and 2 μg/ml collagen,75 % control
same,"Ins-1,4,5-P3 levels between 30 and 60 seconds after collagen stimulation",platelets [1]; 100 μM pretreatment,remained at baseline
same,collagen-stimulated PI-PLC activity,"platelets [1]; 100 μM, 30 min, 2 μg/ml collagen",inhibited collagen-stimulated PI-PLC activity
same,"Ins-1,4,5-P3 levels","platelets [1]; 100 μM, 30 min pretreatment, 30 seconds after collagen stimulation",17.8±1.4 pmols/10^9 platelets
same,inhibition at 100 µM,"platelets [1]; Homo sapiens, Platelet, read-out: % inhibition of inositol 1,4,5-triphosphate production",100%
same,collagen-induced platelet aggregation at 100 μM,"platelets [2]; 100 μM, 30 minute pretreatment, 2 μg/mL collagen",completely prevented
same,IC50,"platelets [2]; Homo sapiens, Platelet, read-out: IC50 inhibition of platelet aggregation, 2 μg/mL collagen",2780 nM
same,IC50,"platelets [2]; Homo sapiens, Platelet, read-out: IC50 inhibition of platelet aggregation, 5 μg/mL collagen",66100 nM
same,"platelet response to high and low doses of collagen, PRP","platelets [2]; PRP treated 20 min or 24 hours, collagen 2 or 5 μg/mL",significantly reduced
same,IC50,"platelets [2]; read-out: IC50 inhibition of platelet aggregation, 2 μg/mL collagen",2800 ± 930 nM
same,"thrombin-induced platelet aggregation, PRP",platelets [3]; PRP treated 20 min or 24 hours,No significant effect
same,effect on thrombin-induced platelet aggregation,platelets [3]; up to 1000 μM,No significant effect; also recorded: not impaired
same,"toxicity, single i.p. bolus",mice [4],not toxic
same,prolongation of tail bleeding time versus vehicle,mice [5]; 20 mg/kg,4.9 fold
same,average tail bleeding time,"mice [5]; 20 mg/kg i.v., N=5",7.4 ± 1.0 min
same,prolongation of tail bleeding time versus vehicle,mice [5]; 40 mg/kg,5.6 fold
same,average tail bleeding time,"mice [5]; 40 mg/kg i.v., N=5",8.5 ± 0.6 min
same,prolongation of tail bleeding time versus vehicle,mice [5]; 80 mg/kg,6.3 fold
same,average tail bleeding time,"mice [5]; 80 mg/kg i.v., N=12",9.5 ± 0.5 min
same,median survival time,ICR mice; LFM-A13 20 mg/kg,8.0 min
same,probability of event-free survival after thromboplastin challenge,ICR mice; LFM-A13 20 mg/kg,20±13%
same,median survival time,ICR mice; LFM-A13 40 mg/kg,> 2880 min
same,probability of event-free survival after thromboplastin challenge,ICR mice; LFM-A13 40 mg/kg,80±13%
same,drug-related toxic lesions in organs,"ICR mice; LFM-A13 pretreated, thromboplastin-challenged mice",No drug-related toxic lesions were detected
same,collagen-induced calcium mobilization,platelets [6],significantly reduced
same,"DSU (density of BTK protein band, densitometric scanning units)",BTK; [7],1236
same,"PIU (BTK autophosphorylation, phosphorimager units)",BTK; [7],78
same,BTK kinase activity in collagen-stimulated platelets,"BTK; 30 min, 2 μg/mL collagen",completely prevented collagen-induced stimulation of BTK; also recorded: significantly inhibited BTK kinase activity
same,"DSU (density of BTK protein band, densitometric scanning units)",BTK; [8],1432
same,"PIU (BTK autophosphorylation, phosphorimager units)",BTK; [8],68
same,reduction of baseline BTK activity in platelets,BTK; 30 min at 37° C.,> 90%

# — US6589992B2, “Inhibiting collagen-induced platelet aggregation” (Parker Hughes Institute, priority 1999, dated 2003)
